Measured values reported in patent US6649595B2, “Regulation of biological events using novel compounds” (ARIAD Gene Therapeutics, Inc., priority 1995, dated 2003).
Like-named read-outs stand apart in the source and are kept apart here.

Legend:
[1] = test system: HT1080 cells expressing M30 / M31 (FRAP-FKBP-Fas) constructs; experiment: Rapamycin-regulated apoptosis of stably transfected HT1080 cells; type: cell-based, human; conditions: with 50 ng/ml actinomycin D, about 20 hours, alamar blue
Excerpt: (f) Rapamycin-regulated apoptosis of stable transsfected human HT1080 cells in culture XbaI-BamHI fragments from constructs A30 and A31 (d, table 1) were cloned into pCM to generate M30 and M31, constructs that direct the expression of MT5FasSE and MT6FasSE, where M denotes a myristoylation domain (see this example sections A.1. and A.8.) and other abbreviations are as described in d, table 1. EcoRI-BamHI fragments containing these expression cassettes were then cloned into the retroviral vector pSMN3 (Example 7). […] HT1080 cells were infected with viral stock and selected with G418.
The media was removed and replaced with 100 μl of media containing 10% alamar blue dye. Plates were incubated as before, and the extent of cell viability assessed periodically by spectrophotometric determination of OD at 570 nm and 600 nm on a microtiter plate reader. Typically reading was continued until control (untreated) wells are at OD 0.2-0.4 after subtraction of blank.

[2] = Rapamycin pharmacokinetics in mice; type: in vivo
[3] = test system: transfected HT1080 cells (hGH target gene) transplanted into nu/nu mice; experiment: Rapamycin-dependent production of hGH in mice; type: in vivo
Excerpt: In Vivo Methods: Animals, husbandry, and general procedures. Male nu/nu mice were obtained from Charles River Laboratories (Wilmington, Mass.) and allowed to acclimate for five days prior to experimentation. They were housed under sterile conditions, were allowed free access to sterile food and sterile water throughout the entire experiment, and were handled with sterile techniques throughout.
To transplant transiently transfected cells into mice, 2×10^6 transfected HT1080 cells, were suspended in […] PBS/0.1% BSA/0.1% glucose buffer, and administered into four intramuscular sites (approximately […] per site) on the haunches and flanks of the animals. Control mice received equivalent volume injections of buffer alone.
The accuracy of the dosing solutions was confirmed by HPLC analysis prior to intravenous administration into the tail veins. […] In addition, other control mice, bearing transfected cells, received only the rapamycin vehicle.
Blood was collected by either anesthetizing or sacrificing mice via CO2 inhalation. Anesthetized mice were used to collect […] of blood by cardiac puncture. The mice were revived and allowed to recover for subsequent blood collections. Sacrificed mice were immediately exsanguinated. Blood samples were allowed to clot for 24 hours, at 4° C., and sera were collected following centrifugation at 1000×g for 15 minutes. Serum hGH was measured by the Boehringer Mannheim non-isotopic sandwich ELISA (Cat No. 1 585 878). […] Recommended assay instructions were followed.
Mice were administered transfected HT1080 cells as described above. […] The four remaining doses were given under anesthesia, immediately subsequent to blood collection, at 16, 32, 48, and 64 hours. […] Experimental animals and their control counterparts were each assigned to one of two groups. Each of the two experimental groups and two control groups received identical drug or vehicle treatments, respectively. The groups differed in that blood collection times were alternated between the two groups to reduce the frequency of blood collection for each animal.

FKBPwt = biological target: T1, FKBPwt (Homo sapiens, UniProt P62942); experiment: Competitive fluorescence polarization (FP) binding assay of rapalogs to FKBP
T1 construct: made in house
Method: Serial 10-fold dilutions of each analog were prepared in 100% ethanol in glass vials and stored on ice. All other manipulations were performed at room temperature. […] Finally, a probe solution was prepared containing 10 nM AP1491 in 0.1% ethanol/FP buffer, and 100 μl added to each well with mixing.
The plates were stored covered in the dark for approximately 30 min to permit equilibration and then the fluorescence polarization of the sample in each well read on a Jolley FPM-2 FP plate reader (Jolley Consulting and Research, Inc., Grayslake, Ill.) in accordance with the manufacturer's recommendations. The mean polarization (mP units)
for each competitor concentration was usually converted to % total binding by reference to the control values and plotted (y) vs. log molar final concentration of competitor (x). Non-linear least square analysis was used to fit the curve and extract the IC50 using the following equation:
y=M1+(M4−M1)/(1+exp(M2*(M3−x)))
where M3 is the IC50. For incomplete curves the IC50 was determined by interpolation.

[4] = =IC50/IC50 of rapamycin, C7 rapalogs
[5] = C7 rapalogs, read-out: FKBPwt FP binding assay IC50

T1 sequence (P62942 whole entry): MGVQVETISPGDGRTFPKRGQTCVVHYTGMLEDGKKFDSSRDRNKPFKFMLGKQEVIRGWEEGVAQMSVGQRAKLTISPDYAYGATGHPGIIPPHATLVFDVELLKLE

## CO[C@H]1C[C@@H]2CC[C@@H](C)[C@@](O)(O2)C(=O)C(=O)N2CCCC[C@H]2C(=O)O[C@H]([C@H](C)C[C@@H]2CC[C@@H](O)[C@H](OC)C2)CC(=O)[C@H](C)/C=C(\C)[C@@H](O)[C@@H](OC)C(=O)[C@H](C)C[C@H](C)/C=C/C=C/C=C/1C [rapamycin, Rapamycin]
[1]
  survival of stably transfected cells: potently reduced
[2]; 10.0 mg/kg at 16-hour intervals, after two doses
  predicted steady-state trough concentration of rapamycin: 1.7 µg/mL
[2]; nu/nu, mouse, in vivo, mice, intravenous
  half-life: 4.6 h
[3]; 0.01-10.0 mg/kg intravenous, serum 17 hours after dosing
  production of hGH in mice: dose-responsive production of hGH
[3]; single 10.0 mg/kg dose
  time after treatment at which serum hGH remained detectable: 42 h
  time at which serum hGH was observed: within four hours
  time of peak serum hGH: eight hours
[3]; single 10.0 mg/kg dose, eight hours
  peak serum hGH level: over one hundred times the sensitivity limit of the hGH ELISA

## CCOC1C[C@@H]2CC[C@@H](C)[C@@](O)(O2)C(=O)C(=O)N2CCCC[C@H]2C(=O)OC([C@H](C)C[C@@H]2CC[C@@H](O)[C@H](OC)C2)CC(=O)[C@H](C)/C=C(\C)[C@@H](O)[C@@H](OC)C(=O)[C@H](C)C[C@H](C)/C=C/C=C/C=C/1C (stereo partly drawn) [Compound 28]
FKBPwt; [4]
  fold loss in affinity (cf rapamycin): 1.6
FKBPwt; [5]
  IC50: 3.7 nM

## CO[C@H]1C[C@@H]2CC[C@@H](C)[C@@](O)(O2)C(=O)C(=O)N2CCCC[C@H]2C(=O)O[C@H]([C@H](C)C[C@@H]2CC[C@@H](O)[C@H](OC)C2)C/C(=N\OCc2ccccc2)[C@H](C)/C=C(\C)[C@@H](O)[C@@H](OC)C(=O)[C@H](C)C[C@H](C)/C=C/C=C/C=C/1C [Compound 12, apamycin (E and Z)-24-(O-benzyloxime)]
FKBPwt; =IC50/IC50 of rapamycin, C24 analogs, Table 4
  fold loss in affinity (vs rapamycin): 616
FKBPwt; rapamycin C24 analogs, Table 4, read-out: FKBPwt FP binding assay IC50
  IC50: 1420 nM

## CO[C@@H]1C[C@H](C[C@@H](C)[C@@H]2CC(=O)[C@H](C)/C=C(\C)[C@@H](O)[C@@H](OC)C(=O)[C@H](C)C[C@H](C)/C=C/C=C/C=C(\C)[C@@H](NS(C)(=O)=O)C[C@@H]3CC[C@@H](C)[C@@](O)(O3)C(=O)C(=O)N3CCCC[C@H]3C(=O)O2)CC[C@H]1O [Compound 33]
FKBPwt; [4]
  fold loss in affinity (cf rapamycin): 1.1
FKBPwt; [5]
  IC50: 2.5 nM

## CO[C@@H]1C[C@H](C[C@@H](C)[C@@H]2CC(=O)[C@H](C)/C=C(\C)[C@@H](O)[C@@H](OC)C(=O)[C@H](C)C[C@H](C)/C=C/C=C/C=C(\C)[C@H](c3ccc(C)s3)C[C@@H]3CC[C@@H](C)[C@@](O)(O3)C(=O)C(=O)N3CCCC[C@H]3C(=O)O2)CC[C@H]1O [Compound 37]
FKBPwt
  fold loss in affinity (cf rapamycin): 1.9
FKBPwt; FKBPwt FP binding assay IC50 (nM)
  IC50: 4.3 nM

## CO[C@@H]1C[C@H](C[C@@H](C)[C@@H]2CC(=O)[C@H](C)/C=C(\C)[C@@H](O)[C@@H](OC)C(=O)[C@H](C)C[C@H](C)/C=C/C=C/C=C(\C)[C@H](c3c[nH]c4ccccc34)C[C@@H]3CC[C@@H](C)[C@@](O)(O3)C(=O)C(=O)N3CCCC[C@H]3C(=O)O2)CC[C@H]1O [Compound 45]
FKBPwt; [4]
  fold loss in affinity (cf rapamycin): 2.6
FKBPwt; [5]
  IC50: 5.9 nM
